Reference: patent publication US20150315202A1, “CHLORIN DERIVATIVE USEFUL IN PHOTODYNAMIC THERAPY AND DIAGNOSIS” (RMW CHO GROUP LIMITED, priority 2012, published 2015)
Where “and” joins values, the source holds several entries; their conditions need not be identical. Equal entries are not always repeated.

Experiments:
[1] = Singlet oxygen phosphorescence at 1270 nm after pulsed laser excitation; assay type: physicochemical; settings: for Decay time of photosensitized singlet oxygen phosphorescence / Rise time of photosensitized singlet oxygen phosphorescence: air saturated
Procedure: Singlet oxygen phosphorescence was detected using measurement of infrared phosphorescence at 1270 nm corresponding to the transition of oxygen molecules from the singlet to the triplet state. Phosphorescence was recorded at room temperature with the laser phosphorescence spectrometer described at A. A. Krasnovsky Jr., Photodynamic action and singlet oxygen, Biofizika, 2004, 49, 305-321; and A. A. Krasnovsky Jr., Singlet oxygen and primary mechanisms of photodynamic therapy and photodynamic diseases, In: Photodynamic therapy at the cellular level, ed. A. B. Uzdensky, Research Singpost, Kerala, India, 2007, 17-62. For excitation, nanosecond pulses of 511 nm radiation from a copper-vapour laser (Troitzk, Physics Institute of the Russian Academy of Science) were employed. Laser radiation passed additionally through a green light filter SZS-22 (4 mm), which transmitted laser light and cut off IR laser radiation caused by heating of the laser tube. Pulse duration was 20 ns, pulse energy varied from 18 to 40 μJ and the pulse repetition rate was 12 kHz. The laser light was collimated on the surface of a 1 cm rectangular quartz cuvette. The diameter of the illuminated spot on the surface of the cell was 5 mm. For kinetic measurements another spectrometer was used without a monochromator. In this case, phosphorescence resulting from the right angle to the excitation beam was focused on the photocathode of a cooled S-1 photomultiplier (FEU-112) through a cut-off IR light filter and an interference filter with the transmission maximum at 1270 nm. The phosphorescence spectra were measured using a MS-80 high throughput grid monochromator. In this case, phosphorescence was focused on the entry slit of this monochromator. The bandwidth of the monochromator corresponded to a 20 nm spectral interval. The monochromatic light was focused on the photocathode of a cooled S-1 photomultiplier (FEU-83). The photomultiplier signal was registered using time-correlated single photon counting and averaged over many laser pulses. In most experiments, one-channel on time was equal to 81 ns. When the pigment bleaching reached 10%, the solution was replaced by a fresh one and measurement was continued. […] Reasonable phosphorescent curves were obtained after 10-20 minutes signal accumulation and therefore samples were changed many times. As described previously (D. A. Butorina, A. A. Krasnovsky Jr. and A. V. Priezzev, Investigation of the kinetic parameters of singlet molecular oxygen in aqueous porphyrin solutions, Influence of detergents and the quencher sodium azide, Biofizika, 2003, 48, 189-196; A. A. Krasnovsky Jr., Luminescence and photochemical studies of singlet oxygen photonics, J. Photochem. Photobiol. A: Chem., 2008, 196, 210-218; and N. Kuznetsova, D. Makarov, O. Yuzhakova, A. Strizhakov, Y. Roumbal, L. Ulanova, A. Krasnovsky and O. Kaliya, Photophysical properties and photodynamic activity of octacationic oxotitanium(IV) phthalocyanines, Photochemical Photobiological Sciences, 2009, 8, 1724-1733), for computer analysis the following two-exponential equation was used: […]
I(t)I0·[exp(−kdecay·t)−exp(−krise·t)]+n
where kdecay and krise are the rate constants of the decay and rise phases of the phosphorescence curves after a laser pulse, n is the off noise of the photomultiplier, I0 is the zero-time phosphorescence intensity, and I(t) is the phosphorescence intensity at time t. To reduce contribution of the luminescence of the pigment in the quartz cuvette, which was observed shortly after laser pulses, readings were taken starting from 400 ns after laser pulses in ethanol and 1 μs in water. In addition, phosphorescence and kinetic traces were measured also from the control chlorin e4 sodium solutions containing high concentration of sodium azide, which completely quenched singlet oxygen. […]

[2] = test system: naso pharyngeal carcinoma with metastases in the lymph nodes of the left neck and in the lung; experiment: In vivo studies Example 10: patient, oral chlorin e4 sodium plus laser and LED light; set-up: species or system human
Procedure: A patient with naso pharyngeal carcinoma with metastases in the lymph nodes of the left neck and in the lung, was treated successfully. The treatment consisted of five courses. For each course, five doses of 62.5-187.5 mg chlorin e4 sodium were administered orally over the course of eight days. 24-48 hours after each oral dose of chlorin e4 sodium, the patient was treated with laser and LED light having a wavelength of 660 nm and 760 nm. Additionally an interstitial light treatment using a fine needle was performed on the left lung to a tumour that was large in size with an optical fibre laser having a wavelength of 660 nm and 760 nm.

C=Cc1c(C)c2cc3nc(c(C)c4[nH]c(cc5nc(cc1[nH]2)C(C)=C5CC)c(C)c4C(=O)O)[C@@H](CCC(=O)O)[C@@H]3C [chlorin e4 sodium]
Pigment bleaching under laser irradiation ([1]; 511 nm laser pulses, solutions changed after each 60-180 s irradiation): bleached rather rapidly
Decay time of photosensitized singlet oxygen phosphorescence ([1]; Ethanol): 13.5 μs and 13.5 ± 0.3 μs
Rise time of photosensitized singlet oxygen phosphorescence ([1]; Ethanol): 0.3 ± 0.3 μs
Decay time of photosensitized singlet oxygen phosphorescence ([1]; Water + 0.2M SDS): 3.85 ± 0.3 μs
Rise time of photosensitized singlet oxygen phosphorescence ([1]; Water + 0.2M SDS): 1.2 ± 0.3 μs
Decay time of photosensitized singlet oxygen phosphorescence ([1]; Water): 3.3 ± 0.3 μs
Rise time of photosensitized singlet oxygen phosphorescence ([1]; Water): 1.8 ± 0.4 μs
Rise time of singlet oxygen phosphorescence ([1]; ethanol): 300 ns
Singlet oxygen quantum yield ([1]; ethanol, from phosphorescence kinetic curves, reference TPPS): 0.63±0.05
Photosensitizing activity ([1]; water without SDS): lower than in ethanol
Response (PET/CT) ([2]; five courses, interstitial light on left lung): very good treatment response
Patient status ([2]; one year and five months after starting, two months after completion of treatment): alive and well
